Measurements from US6008196A, “Perfluoroalkyl ketone inhibitors of elastase and processes for making the same” (Hoechst Marion Roussel, Inc., priority 1996, dated 1999).

Target: T1, Human Neutrophil Elastase (Homo sapiens, UniProt P08246)
T1 construct: Enzyme is purified from human sputum, although recently it has become commercially available; from tissue; host or cells: human sputum
T1 sequence (P08246 30-247 limits assumed): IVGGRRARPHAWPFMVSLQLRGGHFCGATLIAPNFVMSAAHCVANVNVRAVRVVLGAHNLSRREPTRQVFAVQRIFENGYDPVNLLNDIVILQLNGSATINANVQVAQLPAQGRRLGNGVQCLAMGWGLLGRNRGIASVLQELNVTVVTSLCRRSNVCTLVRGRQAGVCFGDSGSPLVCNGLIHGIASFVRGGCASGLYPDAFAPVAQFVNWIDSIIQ
Test: Human neutrophil elastase assayed in vitro with N-MeOSuc-Ala-Ala-Pro-Val-p-nitroanilide as substrate
Assay type: biochemical
Settings: enzyme purified from human sputum
Description: Human neutrophil elastase is assayed in vitro using N-MeOSuc-Ala-Ala-Pro-Val-p-nitroanilide, available commercially, as substrate. […] Enzyme is purified from human sputum, although recently it has become commercially available. Kinetic characterization of immediate inhibitors is by means of the Dixon plot, whereas the characterization of slow- and/or tight-binding inhibitors used data analysis techniques reviewed by Williams and Morrison. The synthesis and analytical use of a highly sensitive and convenient substrate of elastase is described in J. Bieth, B. Spiess and C. […] For the purposes of this table, MCBz refers to 4-(4-morpholinylcarbonyl)benzoyl and Pyr refers to 3-(3-pyridyl)propanoyl.

Ki [nM] | Structure (SMILES)
490 | CC(C)C(NC(=O)[C@@H]1CCCN1C(=O)[C@@H](NC(=O)OC(C)(C)C)C(C)C)C(=O)C(F)(F)C(F)(F)C(F)(F)F (stereo partly drawn) [Boc--Val--Pro--Val--CF2 CF2 CF3, N-[(1,1-dimethylethoxy)carbonyl]-L-valyl-N'-[3,3,4,4,5,5,5-heptafluoro-1-(1-methylethyl)-2-oxopentyl]-L-prolinamide]
18 | CC(C)C(NC(=O)[C@@H]1CCCN1C(=O)[C@@H](NC(=O)c1ccc(C(=O)N2CCOCC2)cc1)C(C)C)C(=O)C(F)(F)C(F)(F)C(F)(F)F (stereo partly drawn) [MCBz--Val--Pro--Val--CF2 CF2 CF3, N-[4-(4-morpholinylcarbonyl)benzoyl]-L-valyl-N'-[3,3,4,4,5,5,5-heptafluoro-1-(1-methylethyl)-2-oxopentyl]-L-prolinamide]
590 | CC(C)C(NC(=O)[C@@H]1CCCN1C(=O)[C@@H](NC(=O)OC(C)(C)C)C(C)C)C(=O)C(F)(F)C(F)(F)C(F)(F)C(F)(F)F (stereo partly drawn) [Boc--Val--Pro--Val--CF2 CF2 CF2 CF3, N-[(1,1-dimethylethoxy)carbonyl]-L-valyl-N'-[3,3,4,4,5,5,6,6,6-nonafluoro-1-(1-methylethyl)-2-oxohexyl]-L-prolinamide]
